Drawing on US9278915B2, “Agonists of GPR40” (CONNEXIOS LIFE SCIENCES PVT LTD, priority 2010, dated 2016), this text covers EC50 for 33 molecules.

Usually EC50 stands for the midpoint of the concentration-response curve.

The structures appear in SMILES notation.

T1 sequence (O14842 whole entry): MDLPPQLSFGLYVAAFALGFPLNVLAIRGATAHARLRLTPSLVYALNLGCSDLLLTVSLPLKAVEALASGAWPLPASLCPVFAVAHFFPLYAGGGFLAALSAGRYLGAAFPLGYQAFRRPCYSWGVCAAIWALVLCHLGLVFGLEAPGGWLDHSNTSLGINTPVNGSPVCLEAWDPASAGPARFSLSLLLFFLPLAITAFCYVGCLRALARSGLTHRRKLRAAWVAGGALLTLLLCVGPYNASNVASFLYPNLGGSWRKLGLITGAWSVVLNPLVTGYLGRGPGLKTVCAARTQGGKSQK

This experiment has as its target T1, hGPR40 (Homo sapiens, UniProt O14842).
T1 construct: expressed in transfected cells
The experiment in a line: Calcium flux assay to detect GPR40 activation. Conditions: CHO-K cells stably expressing hGPR40; Fluo-4 NW; read for 4 min at 5 s intervals. Format: cell-based. The gist of the method: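 CHO-K cells stably expressing hGPR40 were cultured 24 h at 37 °C and loaded with Fluo-4 NW for 30 min at 37 °C plus 30 min at RT. Compounds diluted in HEPES buffer were added, and calcium fluorescence was recorded for 4 min at 5 s intervals.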
For orientation: A change in cytosolic calcium serves as a functional read-out for many receptors and channels.
Regarding `CO/N=C(\COc1ccc(COc2ccc(C(C#N)CC(=O)O)cc2)cc1)c1ccccc1` (stereo not drawn) [Compound 16, 3-Cyano-3-{4-[(4-{[(2Z)-2-(methoxyimino)-2-phenylethyl]oxy}benzyl)oxy]phenyl}propanoic acid], the EC50 was 10 to 100 nM. Regarding `CO/N=C(\COc1ccc(COc2ccc([C@H]3C[C@@H]3C(=O)O)cc2)cc1)c1ccc(C#N)cc1` [Compound 64, (1S,2S)-2-{4-[(4-{[(2E,2Z)-2-(4-Cyanophenyl)-2-(methoxyimino)ethyl]oxy}benzyl)oxy]phenyl}cyclopropanecarboxylic acid], the EC50 lay within 10 to 100 nM. Consider `N#CC(CC(=O)O)c1ccc(OCc2ccc(OC/C(=N\OC3CCCCC3)c3ccccc3)cc2)cc1` (stereo not drawn) [Compound 111, 3-Cyano-3-(4-{[4-({(2Z)-2-[(cyclohexyloxy)imino]-2-phenylethyl}oxy)benzyl]oxy}phenyl)propanoic acid], for which the EC50 was in the range of 10 to 100 nM.

As to `CO/N=C(\COc1ccc(COc2ccc(C3CC3C(=O)O)cc2)cc1)c1ccc(C#N)cc1` (stereo not drawn) [Compound 45, 2-{4-[(4-{[(2Z)-2-(4-Cyanophenyl)-2-(methoxyimino)ethyl]oxy}benzyl)oxy]phenyl}cyclopropanecarboxylic acid], the concentration for a half-maximal effect (EC50) was 10 to 100 nM. As for `CO/N=C(\COc1ccc(CNc2ccc(CCC(=O)O)cc2)cc1)c1ccccc1C` [Compound 6, 3-{4-[(4-{[(2Z)-2-(Methoxyimino)-2-(2-methylphenyl)ethyl]oxy}benzyl)amino]phenyl}propanoic acid], the figure is 10 to 100 nM; as for `CO/N=C(\COc1ccc(COc2ccc(C(C#N)CC(=O)O)cc2)cc1F)c1ccccc1` (stereo not drawn) [Compound 50, Sodium 3-cyano-3-{4-[(3-fluoro-4-{[(2Z)-2-(methoxyimino)-2-phenylethyl]oxy}benzyl)oxy]phenyl}propanoate], below 10 nM.

For `CO/N=C(\COc1ccc(COc2ccc(CCC(=O)O)c(OCC#N)c2)cc1)c1ccccc1` [Compound 88, 3-{2-(Cyanomethoxy)-4-[(4-{[(2Z)-2-(methoxyimino)-2-phenylethyl]oxy}benzyl)oxy]phenyl}propanoic acid], the EC50 was above 100 nM. As for `CO/N=C(\COc1ccc(COc2ccc(C(C#N)CC(=O)O)c(C)c2)cc1)c1ccccc1` (stereo not drawn) [Compound 62, 3-Cyano-3-{4-[(4-{[(2Z)-2-(methoxyimino)-2-phenylethyl]oxy}benzyl)oxy]-2-methylphenyl}propanoic acid], the EC50 was in the range of 10 to 100 nM. As for `CO/N=C(\COc1ccc(COc2ccc(C(C#N)CC(=O)O)cc2)cc1)c1ccc(F)cc1` (stereo not drawn) [Compound 34, 3-Cyano-3-{4-[(4-{[(2Z)-2-(4-fluorophenyl)-2-(methoxyimino)ethyl]oxy}benzyl)oxy]phenyl}propanoic acid], the figure is below 10 nM; as for `O=C(O)CCc1ccc(OCc2ccc(OC/C(=N\OCc3ccccc3)c3ccccc3)cc2)cc1` [Compound 108, 3-(4-{[4-({(2E,2Z)-2-[(Benzyloxy)imino]-2-phenylethyl}oxy)benzyl]oxy}phenyl) propanoic acid], 10 to 100 nM; as for `N#CC(CC(=O)O)c1ccc(OCc2ccc(OC/C(=N\O)c3ccccc3)cc2)cc1` (stereo not drawn) [Compound 109, 3-Cyano-3-{4-[(4-{[(2Z)-2-(hydroxyimino)-2-phenylethyl]oxy}benzyl)oxy]phenyl}propanoic acid], above 100 nM.

On to `CO/N=C(\COc1ccc(COc2ccc3c(c2)OCC3CC(=O)O)cc1)c1ccccc1` (stereo not drawn) [Compound 73, {6-[(4-{[(2Z)-2-(Methoxyimino)-2-phenylethyl]oxy}benzyl)oxy]-2,3-dihydro-1-benzofuran-3-yl}acetic acid], for which the EC50 was 10 to 100 nM.

On to `CO/N=C(/COc1ccc(COc2ccc(COCC(=O)O)cc2)cc1)c1ccccc1` [Compound 30, ({4-[(4-{[(2E,2Z)-2-(Methoxyimino)-2-phenylethyl]oxy}benzyl)oxy]benzyl}oxy)acetic acid], for which the EC50 is above 100 nM. As for `CO/N=C(\COc1cccc(COc2ccc(CC(C#N)C(=O)O)cc2)c1)c1ccccc1` (stereo not drawn) [Compound 8, 2-Cyano-3-{4-[(3-{[(2E,2Z)-2-(methoxyimino)-2-phenylethyl]oxy}benzyl)oxy]phenyl}propanoic acid], the EC50 is above 100 nM. `CO/N=C(\COc1ccc(COc2ccc(CCC(=O)O)c(F)c2)cc1OC)c1ccccc1` [Compound 41, 3-{2-Fluoro-4-[(3-methoxy-4-{[(2E,2Z)-2-(methoxyimino)-2-phenylethyl]oxy}benzyl)oxy]phenyl}propanoic acid]: the EC50 lay within 10 to 100 nM.

For the molecule `CO/N=C(\COc1ccc(COc2ccc(C(C)(C#N)CC(=O)O)cc2)cc1)c1ccccc1` (stereo not drawn) [Compound 59, 3-Cyano-3-{4-[(4-{[(2Z)-2-(methoxyimino)-2-phenylethyl]oxy}benzyl)oxy]phenyl}butanoic acid], the EC50 was above 100 nM. As for `CO/N=C(\COc1ccc(COc2ccc(C(C#N)CC(=O)O)cc2)cc1)c1ccc2c(c1)CCO2` (stereo not drawn) [Compound 102, 3-Cyano-3-{4-[(4-{[(2Z)-2-(2,3-dihydro-1-benzofuran-5-yl)-2-(methoxyimino)ethyl]oxy}benzyl)oxy]phenyl}propanoic acid], the EC50 was 10 to 100 nM.

As to `CO/N=C(\COc1ccc(COc2ccc(C(C#N)CC(=O)O)cc2)cc1)c1cccc(F)c1` (stereo not drawn) [Compound 35, 3-Cyano-3-{4-[(4-{[(2Z)-2-(3-fluorophenyl)-2-(methoxyimino)ethyl]oxy}benzyl)oxy]phenyl}propanoic acid], the EC50 was 10 to 100 nM. As to `CO/N=C(\COc1ccc(COc2ccc(C(O)CC(=O)O)cc2)cc1)c1ccccc1` (stereo not drawn) [Compound 118, 3-Hydroxy-3-{4-[(4-{[(2Z)-2-(methoxyimino)-2-phenylethyl]oxy}benzyl)oxy]phenyl}propanoic acid], the EC50 is above 100 nM. With `CO/N=C(\COc1ccc(COc2ccc(CCC(=O)O)c(CC#N)c2)cc1)c1ccccc1` [Compound 44, 3-{2-(Cyanomethyl)-4-[(4-{[(2Z)-2-(methoxyimino)-2-phenylethyl]oxy}benzyl)oxy]phenyl}propanoic acid], the EC50 was above 100 nM. With `CO/N=C(/COc1ccc(COc2ccc(C(C#N)CC(=O)O)cc2)cc1)C1CC1` (stereo not drawn) [Compound 104, 3-Cyano-3-{4-[(4-{[(2E)-2-cyclopropyl-2-(methoxyimino)ethyl]oxy}benzyl)oxy]phenyl}propanoic acid], the half-maximal effective concentration (EC50) was above 100 nM. With `CO/N=C(/COc1ccc(COc2ccc(C(C#N)CC(=O)O)cc2)cc1F)c1ccccc1` (racemic) [Compound 21, 3-Cyano-3-{4-[(3-fluoro-4-{[(2E,2Z)-2-(methoxyimino)-2-phenylethyl]oxy}benzyl)oxy]phenyl}propanoic acid], the EC50 is 10 to 100 nM. Regarding `O=C(O)CCc1ccc(NCc2cccc(/C(=N\OCC(F)(F)F)c3ccccc3)c2)cc1` [Compound 9, 3-{4-[(3-{(E,Z)-Phenyl[(2,2,2-trifluoroethoxy)imino]methyl}benzyl)amino]phenyl}propanoic acid], the EC50 is above 100 nM. On to `CO/N=C(\COc1ccc(COc2ccc(/C(CC(=O)O)=N\OCc3ccccc3)cc2)cc1)c1ccccc1` [Compound 122, (3E,3Z)-3-[(Benzyloxy)imino]-3-{4-[(4-{[(2Z)-2-(methoxyimino)-2-phenylethyl]oxy}benzyl)oxy]phenyl}propanoic acid], for which the EC50 is above 100 nM. `CO/N=C(\COc1ccc(COc2cc(F)c(CCC(=O)O)cc2F)cc1)c1ccccc1` [Compound 86, 3-{2,5-Difluoro-4-[(4-{[(22)-2-(methoxyimino)-2-phenylethyl]oxy}benzyl)oxy]phenyl}propanoic acid]: the EC50 was above 100 nM. `CO/N=C(\COc1ccc(COc2ccc(C(C#N)CC(=O)O)cc2)cc1)C1=Cc2ccccc2C1` (stereo not drawn) [Compound 101, 3-Cyano-3-{4-[(4-{[(2Z)-2-(1H-inden-2-yl)-2-(methoxyimino)ethyl]oxy}benzyl)oxy]phenyl}propanoic acid]: the EC50 lay in the range of 10 to 100 nM.

For `CO/N=C(/COc1ccc(COc2ccc(C(C#N)CC(=O)O)cc2)cc1)c1ccc(OC)cc1` (racemic) [Compound 25, 3-Cyano-3-{4-[(4-{[(2E,2Z)-2-(methoxyimino)-2-(4-methoxyphenyl)ethyl]oxy}benzyl)oxy]phenyl}propanoic acid], the EC50 is below 10 nM. As to `CO/N=C(\COc1ccc(COc2ccc(/C(CC(=O)O)=N\Oc3ccccc3)cc2)cc1)c1ccccc1` [Compound 123, (3E,3Z)-3-{4-[(4-{[(2Z)-2-(Methoxyimino)-2-phenylethyl]oxy}benzyl)oxy]phenyl}-3-(phenoxyimino) propanoic acid], the EC50 was above 100 nM. With `CO/N=C(\COc1ccc(COc2ccc(CCC(=O)O)c(O)c2)cc1)c1ccccc1` [Compound 96, 3-{2-Hydroxy-4-[(4-{[(2Z)-2-(methoxyimino)-2-phenylethyl]oxy}benzyl)oxy]phenyl}propanoic acid], the EC50 was above 100 nM. With `CO/N=C(\COc1ccc(COc2ccc(C(C#N)CC(=O)O)cc2)cc1)c1ccccc1` (single isomer, unassigned; (+)) [Compound 74, (+)-3-Cyano-3-{4-[(4-{[(2Z)-2-(methoxyimino)-2-phenylethyl]oxy}benzyl)oxy]phenyl}propanoic acid], the EC50 was above 100 nM. Take `CO/N=C(\COc1ccc(COc2ccc(C(C#N)CC(=O)O)cc2)cc1OC)c1ccccc1` (stereo not drawn) [Compound 26, 3-Cyano-3-{4-[(3-methoxy-4-{[(2Z)-2-(methoxyimino)-2-phenylethyl]oxy}benzyl)oxy]phenyl}propanoic acid]: the EC50 is 10 to 100 nM. Consider `CO/N=C(\COc1ccc(COc2ccc(CCC(=O)O)c(F)c2)cc1)c1ccccc1` [Compound 71, Sodium 3-{2-fluoro-4-[(4-{[(2Z)-2-(methoxyimino)-2-phenylethyl]oxy}benzyl)oxy]phenyl}propanoate], for which the EC50 was above 100 nM.

As for `CO/N=C(/COc1ccc(COc2ccc(C(C#N)CC(=O)O)cc2)cc1)c1ccccc1` (single isomer, unassigned) [Compound 100, 3-Cyano-3-{4-[(4-{[(2E)-2-(methoxyimino)-2-phenylethyl]oxy}benzyl)oxy]phenyl}propanoic acid], the EC50 lay within 10 to 100 nM.
